“And” between values parts separate entries of the source, which are not always exact repeats. Identical values can stand only once.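 Exposure lasted 48 hours, with cells grown in 96-well plates and compounds tested at five concentrations. GI50 is the concentration that inhibits growth by half. Definition used: TGI = concentration required for complete inhibition of growth.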
Key:
Experiment in all cases: growth of human tumour cells (NCI), 48 h
COLO 205 colon = system: COLO 205 colon
HCC-2998 colon = system: HCC-2998 colon
HL-60(TB) leukemia = system: HL-60(TB) leukemia
HOP-62 NSCLC = system: HOP-62 NSCLC
LOX IMVI melanoma = system: LOX IMVI melanoma
NCI-H522 lung = system: NCI-H522 lung
NCI/ADR-RES ovarian = system: NCI/ADR-RES ovarian
RPMI-8226 leukemia = system: RPMI-8226 leukemia
SF-539 CNS = system: SF-539 CNS
T-47D breast = system: T-47D breast

Row | SMILES | GI50 (COLO 205 colon) | TGI (COLO 205 colon) | GI50 (HCC-2998 colon) | TGI (HCC-2998 colon) | GI50 (HL-60(TB) leukemia) [µM] | TGI (HL-60(TB) leukemia) | GI50 (HOP-62 NSCLC) | TGI (HOP-62 NSCLC) | GI50 (LOX IMVI melanoma) | TGI (LOX IMVI melanoma) | GI50 (NCI-H522 lung) | TGI (NCI-H522 lung) | GI50 (NCI/ADR-RES ovarian) | TGI (NCI/ADR-RES ovarian) | GI50 (RPMI-8226 leukemia) | TGI (RPMI-8226 leukemia) | GI50 (SF-539 CNS) | TGI (SF-539 CNS) | GI50 (T-47D breast) | TGI (T-47D breast)
1 | COc1ccc(-c2nnc(COc3ccc(NC(=O)Nc4cc(C(F)(F)F)cc(C(F)(F)F)c4)cc3F)o2)cc1 | 1.9 µM | 3.3 µM | 2.42 µM | 5.92 µM | 2.34 | 6.02 µM | 2.69 µM | 7.12 µM | 1.95 µM | 4.42 µM | 2.15 µM | 5.35 µM | 1.91 µM | 5.16 µM | 1.35 µM | 4.2 µM | 2.09 µM | 5.28 µM | 2.62 µM | 6.94 µM
2 | O=C(CCc1nnc2sc(-c3ccc(Cl)cc3Cl)nn12)c1nc2ncccc2[nH]1 | 1.93 µM | 4.2 µM | 1.77 µM | 3.32 µM | 2.91 | 12.8 µM | 2.18 µM | 6.77 µM | 1.69 µM | 3.08 µM | 1.9 µM | 4.49 µM | 2.71 µM | 9.12 µM | 1.8 µM | 7.59 µM | 1.96 µM | 3.98 µM | 1.47 µM | 5.03 µM
3 | COc1ccc(-c2nnc(COc3ccc(C(=O)/C=C/c4ccco4)cc3)o2)cc1 | 2.23 µM | 4.32 µM | 2.32 µM | 5.26 µM | 2.65 | 7.38 µM | 2.5 µM | 7.23 µM | 1.71 µM | 3.18 µM | 2.59 µM | 5.62 µM | 8.62 µM | 25 µM | 2.13 µM | 5.94 µM | 1.8 µM | 3.63 µM | 2.91 µM | 10.8 µM
4 | Nc1ncnc2c1nnn2C1OC(CO)C(O)C1O (stereo not given) |  | 2.73 µM |  | 5.32 µM |  | 2.16 µM |  | 5.78 µM |  | 3.77 µM |  | 4.51 µM |  | 9.32 µM |  | 5.71 µM |  | 9.04 µM | 0.265 µM | 4.81 µM
5 | N#CC(C#N)=CNC(N)=S |  | > 100 µM |  | > 100 µM |  | > 100 µM |  | > 100 µM |  | > 100 µM |  | > 100 µM |  | > 100 µM |  | > 100 µM |  | > 100 µM |  | > 100 µM
6 | CC[C@H](Nc1ncnc2nc[nH]c12)c1oc2ccccc2c(=O)c1-c1cccc(F)c1 | 37.4 µM | > 100 µM | 35.7 µM | > 100 µM | 11 | 42.5 µM | 33.8 µM | > 100 µM | 26.3 µM | > 100 µM | 19.7 µM | > 100 µM | 21.3 µM | > 100 µM | 14.5 µM | > 100 µM | 31.4 µM | > 100 µM | 8.24 µM | > 100 µM
7 | CC(=O)OC1=CC(n2cc(F)c(=O)[nH]c2=O)OC(C)C1=O (stereo not given) |  | > 100 µM |  | > 97.2 µM |  | > 100 µM |  | > 100 µM |  | > 100 µM |  | > 100 µM |  | > 100 µM |  | > 100 µM |  | 29 µM |  | > 100 µM
8 | Cc1cc(I)cc(CN(C)CCCN2CCCCC2)c1O | 13.7 µM | 27.3 µM | 14 µM | 27.2 µM | 12.7 | 29.7 µM | 13.7 µM | 27 µM | 13.5 µM | 28.5 µM | 16.7 µM | 31.4 µM | 21.9 µM | 59 µM | 11.8 µM | 29.9 µM | 13.7 µM | 26.9 µM | 15.8 µM | 43 µM
9 | CN(C)CCSC1=Nc2ccc(Cl)cc2C(c2ccccc2Cl)=NC1 | 14 µM and 74.2 µM | 27.3 µM and > 100 µM | 13.4 µM and > 100 µM | 30.3 µM and > 100 µM |  | 66.5 µM and 80.4 µM | 15.8 µM and > 100 µM | 32.1 µM and > 100 µM | 15.6 µM and 69.7 µM | 30.9 µM and > 100 µM | 6.68 µM and 52.2 µM | 21.6 µM and > 100 µM | 15 µM and 42.4 µM | 37.1 µM and > 100 µM | 16.2 µM and 49.4 µM | 40.6 µM and > 100 µM | 17.3 µM and > 100 µM | 31.6 µM and > 100 µM | 19.2 µM and 78.3 µM | 47.3 µM and > 100 µM
10 | CN1CCN(CCCn2c(=O)c3sc4ncccc4c3n3nnc(-c4ccccc4)c23)CC1 | 7.35 µM | 14.6 µM | 6.77 µM | 13.4 µM | 0.795 | 1.73 µM | 8.19 µM | 15.3 µM | 5.33 µM | 11.5 µM | 7.23 µM | 14.4 µM | 7.19 µM | 14.2 µM | 6.1 µM | 15.8 µM | 5.72 µM | 13.4 µM | 7.99 µM | 15.8 µM

From PubChem BioAssay (NCI)
